Test results reported in US12570639B2, “Tetrahydroquinoline derivative and medicinal use thereof” (Toray Industries, Inc., priority 2020, dated 2026).

System: Human fibrosarcoma cells (HT-1080 cells)
Experiment: In vitro inhibitory action against ferroptosis (Erastin-induced cell death, Cell Counting Kit-8)
Type: cell-based
Conditions: Erastin 3 μmol/L, 24 hours
Experimental: The inhibitory action against ferroptosis of the tetrahydroquinoline derivative (I) or a pharmaceutically acceptable salt thereof was evaluated with Human fibrosarcoma cells (HT-1080 cells), by using, as an index, the inhibitory action against the cell death induced by treatment with a ferroptosis inducer, Erastin.
HT-1080 cells (ATCC) were cultured in a mixture (hereinafter referred to as vehicle) composed of DMEM/F12 (Thermo Fisher Scientific, Inc.), a final concentration of 10% fetal bovine serum (Thermo Fisher Scientific, Inc.), and a final concentration of 1% penicillin-streptomycin solution (Nacalai Tesque, Inc.). Cells were seeded into 96-well plates (Corning Inc.) at 5×10^4 cells/well and cultured overnight.
A test compound was dissolved in DMSO, and the resulting solution was diluted in the vehicle to a final concentration of 1% DMSO and then used. […] Thirty minutes after the addition of the test compound, Erastin (Cayman Chemical Co.) diluted in the vehicle at a final concentration of 3 μmol/L was added to wells. The wells added with the test compound and Erastin were grouped as “test compound,” and the wells added with no test compound and no Erastin were grouped as “background,” and the wells added with no test compound but with Erastin were grouped as “control.” Twenty-four hours after the addition of Erastin, 5 μL of Cell Counting Kit-8 (Dojindo Laboratories) was added to each well and incubated for 4 hours, and the absorbance at 450 nm was then measured for each well (N=2). […] Ferroptosis inhibition rate (%)=[1−{(Average absorbance value at 450 nm measured when a test compound is added)−(Average absorbance value at 450 nm measured in the background)}/{(Average absorbance value at 450 nm measured in the control)−(Average absorbance value at 450 nm measured in the background)}]×100 Equation 1

[1] = evaluation concentration 30 μmol/L
[2] = evaluation concentration 50 μmol/L

Molecule	Ferroptosis inhibition rate (%) [1] [%]	Ferroptosis inhibition rate (%) [2] [%]
O=C(c1ccc(C2CCc3ccccc3N2)cc1)N1CCOCC1 (stereo not shown) [Example 42, morpholino(4-(1,2,3,4-tetrahydroquinolin-2-yl)phenyl)methanone]	98.89	
c1ccc2c(c1)CCC(c1cnsc1)N2 (stereo not shown) [Example 50, 4-(1,2,3,4-tetrahydroquinolin-2-yl)isothiazole]	103.2	
NS(=O)(=O)c1ccccc1C1CCc2ccccc2N1 (stereo not shown) [Example 20, 2-(1,2,3,4-tetrahydroquinolin-2-yl)benzenesulfonamide]	95.88	
N#Cc1ccc(C2CCc3ccccc3N2)cc1F (stereo not shown) [Example 141]	59.10	
c1ccc2c(c1)CCC(c1ccc3c(c1)OCO3)N2 (stereo not shown) [Example 9, 2-(benzo[d][1,3]dioxol-5-yl)-1,2,3,4-tetrahydroquinoline]		88.84
NC(=O)c1ccc(C2CNc3ccccc3C2)cc1 (stereo not shown) [Example 166, 4-(1,2,3,4-tetrahydroquinolin-3-yl)benzamide]	96.52	
CC(=O)Nc1ccc(C2CNc3ccccc3C2)cc1 (stereo not shown) [Example 168, N-(4-(1,2,3,4-tetrahydroquinolin-3-yl)phenyl)acetamide]	86.46	
COC(=O)[C@@H]1C[C@H](c2ccccc2)Nc2ccccc21 (relative stereo) [Example 88, methyl (2R*, 4R*)-2-phenyl-1,2,3,4-tetrahydroquinolin-4-carboxylate]	97.70	
NS(=O)(=O)c1cccc(C2CCc3ccccc3N2)c1 (stereo not shown) [Example 19, 3-(1,2,3,4-tetrahydroquinolin-2-yl)benzenesulfonamide]	100.5	
FC(F)(F)c1cccc(C2CCc3ccccc3N2)c1 (stereo not shown) [Example 30, 2-(3-(trifluoromethyl)phenyl)-1,2,3,4-tetrahydroquinoline]		83.09
Cc1ccc2c(c1)CCC(c1ccc(S(N)(=O)=O)c(F)c1)N2 (stereo not shown) [Example 113, 2-fluoro-4-(6-methyl-1,2,3,4-tetrahydroquinolin-2-yl)benzenesulfonamide]	97.54	
OCC1(c2ccccc2)CCc2ccccc2N1 (stereo not shown) [Example 92, (2-phenyl-1,2,3,4-tetrahydroquinolin-2-yl)methanol]	66.40	
COC(=O)c1ccc(C2CCc3ccccc3N2)cc1 (stereo not shown) [Example 17, methyl 4-(1,2,3,4-tetrahydroquinolin-2-yl)benzoate]		98.12
CS(=O)(=O)c1ccc(C2CNc3ccccc3C2)cc1 (stereo not shown) [Example 169, 3-(4-(methylsulfonyl)phenyl)-1,2,3,4-tetrahydroquinoline]	85.58	
OCc1ccccc1C1CCc2ccccc2N1 (stereo not shown) [Example 47, (2-(1,2,3,4-tetrahydroquinolin-2-yl)phenyl)methanol]	85.21	
O=C1NCc2cc(C3CCc4ccccc4N3)ccc21 (stereo not shown) [Example 123, 5-(1,2,3,4-tetrahydroquinolin-2-yl)isoindolin-1-one]	113.4	
Cc1ccc2c(c1)CCC(c1cscn1)N2 (stereo not shown) [Example 103, 4-(6-methyl-1,2,3,4-tetrahydroquinolin-2-yl)thiazole]	76.76	
Cc1ccc2c(c1)CCC(c1cnoc1)N2 (stereo not shown) [Example 104, 4-(6-methyl-1,2,3,4-tetrahydroquinolin-2-yl)isoxazole]	64.65	
7-fluoro-(1H-pyrazol-4-yl)-1,2,3,4-tetrahydroquinoline [Example 140]	72.81	
Cc1ccc2c(c1)CCC(c1ccc3c(c1)CCC(=O)N3)N2 (stereo not shown) [Example 101, 6-methyl-1,2,3,3′,4,4′-hexahydro-[2,6′-biquinolin]-2′(1′H)-one]	109.6	
OCc1cccc(C2CCc3ccccc3N2)c1 (stereo not shown) [Example 48, (3-(1,2,3,4-tetrahydroquinolin-2-yl)phenyl)methanol]	81.80	
CC1(c2ccccc2)CCc2ccccc2N1 (stereo not shown) [Example 91, 2-methyl-2-phenyl-1,2,3,4-tetrahydroquinoline]	105.2	
